Publication PMC4446618, “SAR of Sponge-Inspired Hemibastadin Congeners Inhibiting Blue Mussel PhenolOxidase” (Marine Drugs, 2015)
Read-outs that look alike come from different tables or passages of the source.

What was measured:
[1] = system: blue mussel phenoloxidase (PO); assay: Blue mussel PO inhibition assay; assay type: biochemical, Mytilus edulis; settings: for enzyme inhibitory activity towards blue mussel PO (in words): compared to DBHB (1); for IC50: purified enzyme, 25 °C, 10 mM L-DOPA, 50 mM phosphate buffer pH 6.8, 2 h incubation, triplicate
Experimental: PO activity was measured spectrophotometrically as described earlier. The purified enzyme was incubated at 25 °C with 10 mM L-DOPA in 50 mM phosphate buffer of pH 6.8. PO activity was determined by monitoring the increase of absorbance at 475 nm. One unit of enzyme activity was defined as the amount of enzyme that catalyzes the formation of 1 μmol dopachrome per minute under the described experimental conditions. Hemibastadin congeners were added to the assay at concentrations of up to 50 μg/mL. In addition, the biocide TBT (10 μg/mL) was used as a positive standard. Aliquots of pure enzyme were incubated for 2 h with hemibastadin analogues, then the enzyme activity was recorded with L-DOPA or catechol (10 mM) as substrates. All assays were run in triplicate. The results are presented as the concentration of compounds that reduces enzyme velocity by 50% (IC50 values). IC50 values were calculated using MINITAB (Version 14).

barnacle larvae = system: barnacle larvae; design: method as in PMID 17713818; settings: cited from earlier work
[2] = biological target: blue mussel phenoloxidase (PO); design: method as in PMID 21547349; settings: cited from earlier work; for IC50: data derived from a previous investigation, read-out: IC50, inhibition of blue mussel phenoloxidase (PO)

| Structure (SMILES) | IC50 [1] | further results |
| --- | --- | --- |
| O=C(NCCc1c[nH]c2ccccc12)/C(Cc1cc(Br)c(O)c(Br)c1)=N/O [Compound 12, N-[2-(3-indolyl)-ethyl]-3-(3,5-dibromo-4-hydroxyphenyl)-2-(2-hydroxyimino)-propanamide] | > 100 µM | enzyme inhibitory activity towards blue mussel PO (in words) [1]: complete loss of activity |
| O=C(NCCc1cc(Br)c(O)c(Br)c1)/C(Cc1cc(Br)c(O)c(Br)c1)=N/O [Compound 1, 5,5′-dibromohemibastadin-1] | 0.81 µM | antifouling activity (in words) (barnacle larvae): strong antifouling activity |
| CC(C)CNC(=O)/C(Cc1cc(Br)c(O)c(Br)c1)=N/O [Compound 8, N-(2-methyl-propyl)-3-(3,5-dibromo-4-hydroxyphenyl)-2-(2-hydroxyimino)-propanamide] | 17.2 ± 0.76 µM |  |
| O=C(NCCc1ccccc1)/C(Cc1cc(Br)c(O)c(Br)c1)=N/O [Compound 10, N-2-phenylethyl-3-(3,5-dibromo-4-hydroxyphenyl)-2-(2-hydroxyimino)-propanamide] | 22.7 ± 0.88 µM | enzyme inhibitory activity towards blue mussel PO (in words) [1]: strong reduction of inhibitory activity |
| CO/N=C(\Cc1cc(Br)c(OC)c(Br)c1)C(=O)NCCc1cc(Br)c(OC)c(Br)c1 [Compound 6, Tri-O-methyl-5,5′-dibromohemibastadin-1] | 18.9 ± 0.77 µM | reduction of the enzyme inhibitory activity compared to the parent compound 1 ([1]; relative to DBHB (1)): more than twenty-fold |
| CCCCCCNC(=O)/C(Cc1cc(Br)c(O)c(Br)c1)=N/O [Compound 9, N-hexyl-3-(3,5-dibromo-4-hydroxyphenyl)-2-(2-hydroxyimino)-propanamide] | 16.3 ± 0.83 µM |  |
| O=C(NC1CCCCC1)/C(Cc1cc(Br)c(O)c(Br)c1)=N/O [Compound 7, N-cyclohexyl-3-(3,5-dibromo-4-hydroxyphenyl)-2-(2-hydroxyimino)-propanamide] | 11.7 ± 0.49 µM |  |
| O=C(NCCc1ccc(O)cc1)/C(Cc1ccc(O)cc1)=N/O [Compound 2, Norbromohemibastadin-1] |  | IC50 [2]: 2.41 µM |
| O=C(NCCc1cc(I)c(O)c(I)c1)/C(Cc1cc(I)c(O)c(I)c1)=N/O [Compound 4, Tetraiodo-norbromohemibastadin-1] | 1.14 µM |  |
| O=C(NCCc1c[nH]cn1)/C(Cc1cc(Br)c(O)c(Br)c1)=N/O [Compound 11, N-[2-(4-imidazolyl)-ethyl]-3-(3,5-dibromo-4-hydroxyphenyl)-2-(2-hydroxyimino)-propanamide] | 33.2 ± 1.72 µM | melting point: 130 °C |
| NC(Cc1ccc(O)cc1)C(=O)NCCc1ccc(O)cc1 (stereo not shown) [Compound 3, Tyrosinyltyramine] |  | inhibition of blue mussel PO (in words) [2]: completely inactive; IC50 [2]: > 100 µM |
| O=C(NCCc1cc(Cl)c(O)c(Cl)c1)/C(Cc1cc(Cl)c(O)c(Cl)c1)=N/O [Compound 5, Tetrachloro-norbromohemibastadin-1] | 1.19 µM |  |
| CC(=O)C(C)=NO [Compound 13, 2,3-butanedione monoxime, reference compound] |  | IC50 [2]: 8.7 µM |
